Reference: US20040082635A1, “Fused cyclic compounds and medicinal use thereof” (priority 2001, published 2004)
Where a name gives a salt, the structure may show the parent alone.

Target: T1, HCV polymerase (Hepatitis C virus genotype 1b, UniProt P26663)
T1 construct: a region encoding NS5B (591 amino acids; J Virol 1991 Mar, 65(3), 1105-13) was amplified by PCR; 6 His (N); made in house; host or cells: Escherichia coli
Assay: biochemical
Settings: read-out: HCV polymerase inhibitory activity IC50

T1 sequence (P26663 2420-3010): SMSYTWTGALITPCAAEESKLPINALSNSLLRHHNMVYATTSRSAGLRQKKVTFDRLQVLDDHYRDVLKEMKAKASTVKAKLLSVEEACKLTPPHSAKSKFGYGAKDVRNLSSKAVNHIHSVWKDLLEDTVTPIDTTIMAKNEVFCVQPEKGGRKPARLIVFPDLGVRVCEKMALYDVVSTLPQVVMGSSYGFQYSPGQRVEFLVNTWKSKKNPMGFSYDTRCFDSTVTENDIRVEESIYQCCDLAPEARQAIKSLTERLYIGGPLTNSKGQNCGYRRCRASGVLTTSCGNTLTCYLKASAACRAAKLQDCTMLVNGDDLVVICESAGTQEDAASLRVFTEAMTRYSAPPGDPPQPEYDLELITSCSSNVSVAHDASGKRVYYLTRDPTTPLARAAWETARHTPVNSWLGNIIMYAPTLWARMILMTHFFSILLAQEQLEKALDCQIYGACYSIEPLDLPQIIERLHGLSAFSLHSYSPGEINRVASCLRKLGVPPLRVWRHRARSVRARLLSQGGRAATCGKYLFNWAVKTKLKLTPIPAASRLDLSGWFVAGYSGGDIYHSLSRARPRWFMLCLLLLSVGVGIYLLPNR

Structure (SMILES)	IC50
O=C(O)c1ccc2c(c1)nc(-c1ccc(OCc3cc(OCCCO)ccc3-c3ccc(Cl)cc3)cc1)n2C1CCCCC1 [Example 334, 2-{4-[2-(4-chlorophenyl)-5-(3-hydroxypropyloxy)benzyloxy]phenyl}-1-cyclohexylbenzimidazole-5-carboxylic acid]	16 nM
O=C(O)c1ccc2c(c1)nc(-c1ccc(Oc3ccccc3OCC3CCNCC3)cc1)n2C1CCCCC1 [Example 160, 1-cyclohexyl-2-{4-[2-(4-piperidylmethoxy)phenoxy]phenyl}-benzimidazole-5-carboxylic acid hydrochloride]	240 nM
CC(CO)NC(=O)c1ccc(-c2ccc(Cl)cc2)c(COc2ccc(-c3nc4cc(C(=O)O)ccc4n3C3CCCCC3)c(F)c2)c1 (stereo not shown) [Example 381, 2-{4-[2-(4-chlorophenyl)-5-{(1-hydroxypropan-2-yl)carbamoyl}-benzyloxy]-2-fluorophenyl}-1-cyclohexylbenzimidazole-5-carboxylic acid hydrochloride]	11 nM
CN(C)C(=O)c1ccc(-c2ccc(C(F)(F)F)cc2)c(COc2ccc(-c3nc4cc(C(=O)O)ccc4n3C3CCCCC3)cc2)c1 [Example 266, 1-cyclohexyl-2-{4-[3-dimethylcarbamoyl-6-(4-trifluoromethylphenyl)benzyloxy]phenyl}benzimidazole-5-carboxylic acid hydrochloride]	18 nM
COc1ccc(CCOc2ccc(-c3nc4cc(C(=O)O)ccc4n3C3CCCCC3)cc2)cc1 [Example 119, 1-cyclohexyl-2-{4-[2-(4-methoxyphenyl)ethoxy]phenyl}-benzimidazole-5-carboxylic acid]	130 nM
CN(C)C(=O)c1ccc(-c2ccncc2)c(COc2ccc(-c3nc4cc(C(=O)O)ccc4n3C3CCCCC3)cc2)c1 [Example 320, 2-{4-[5-dimethylaminocarbonyl-2-(4-pyridyl)benzyloxy]phenyl}-1-cyclohexylbenzimidazole-5-carboxylic acid dihydrochloride]	36 nM
O=C(O)c1ccc2c(c1)nc(-c1ccc(OCc3cc(C(=O)NCC(O)CO)ccc3-c3ccc(Cl)cc3)cc1F)n2C1CCCCC1 (stereo not shown) [Example 383, 2-{4-[2-(4-chlorophenyl)-5-{(2,3-dihydroxypropyl)carbamoyl}-benzyloxy]-2-fluorophenyl}-1-cyclohexylbenzimidazole-5-carboxylic acid hydrochloride]	13 nM
O=C(O)c1ccc2c(c1)nc(-c1ccc(OCCOc3ccccc3)cc1)n2C1CCCCC1 [Example 96, 1-cyclohexyl-2-{4-[2-(phenoxy)ethoxy]phenyl}benzimidazole-5-carboxylic acid]	250 nM
COCCOCCOc1ccc(-c2ccc(Cl)cc2)c(COc2ccc(-c3nc4cc(C(=O)O)ccc4n3C3CCCCC3)cc2)c1 [Example 345, 2-{4-[2-(4-chlorophenyl)-5-{2-(2-methoxyethoxy)ethoxy}-benzyloxy]phenyl}-1-cyclohexylbenzimidazole-5-carboxylic acid hydrochloride]	12 nM
CC(C)C(=O)Nc1ccc(-c2ccc(Cl)cc2)c(COc2ccc(-c3nc4cc(C(=O)O)ccc4n3C3CCCCC3)c(F)c2)c1 [Example 452, 2-[4-{2-(4-chlorophenyl)-5-(isopropylcarbonylamino)benzyloxy}-2-fluorophenyl]-1-cyclohexylbenzimidazole-5-carboxylic acid hydrochloride]	28 nM
CS(=O)(=O)Nc1ccc(-c2ccc(Cl)cc2)c(COc2ccc(-c3nc4cc(C(=O)O)ccc4n3C3CCCCC3)cc2)c1 [Example 283, 2-{4-[2-(4-chlorophenyl)-5-methanesulfonylaminobenzyloxy]phenyl}-1-cyclohexylbenzimidazole-5-carboxylic acid]	14 nM
O=C(O)c1ccc2c(c1)nc(-c1ccc(COc3ccccc3-c3ccccc3)s1)n2C1CCCCC1 [Example 252, 2-[2-(2-biphenylyloxymethyl)-5-thienyl]-1-cyclohexylbenzimidazole-5-carboxylic acid]	320 nM
O=C(O)c1cccc(-c2ccc(Cl)cc2COc2ccc(-c3nc4cc(C(=O)O)ccc4n3C3CCCCC3)cc2)c1 [Example 296, 2-{4-[2-(3-carboxyphenyl)-5-chlorobenzyloxy]phenyl}-1-cyclohexylbenzimidazole-5-carboxylic acid]	34 nM
COc1ccc(-c2ccc(Cl)cc2)c(COc2ccc(-c3nc4cc(C(=O)O)ccc4n3C3CCSCC3)cc2)c1 [Example 264, 2-{4-[2-(4-chlorophenyl)-5-methoxybenzyloxy]phenyl}-1-(4-tetrahydrothiopyranyl)benzimidazole-5-carboxylic acid]	< 10 nM
O=C(O)c1ccc2c(c1)cc(-c1ccc(OCc3ccccc3)cc1)n2C1CCCC1 [Example 503, 2-(4-benzyloxyphenyl)-1-cyclopentyl-1H-indole-5-carboxylic acid]	196 nM
CC1CCN(C(=O)c2ccc(-c3ccc(Cl)cc3)c(COc3ccc(-c4nc5cc(C(=O)O)ccc5n4C4CCCCC4)cc3)c2)CC1 [Example 341, 2-{4-[2-(4-chlorophenyl)-5-(4-methylpiperidin-1-ylcarbonyl)benzyloxy]phenyl}-1-cyclohexylbenzimidazole-5-carboxylic acid hydrochloride]	25 nM

Structure (SMILES)	IC50
CC(C)CC(=O)c1ccc(-c2ccc(Cl)cc2)c(COc2ccc(-c3nc4cc(C(=O)O)ccc4n3C3CCCCC3)cc2)c1 [Example 346, 2-{4-[2-(4-chlorophenyl)-5-(isobutylcarbonyl)benzyloxy]phenyl}-1-cyclohexylbenzimidazole-5-carboxylic acid]	25 nM
CC(C)NS(=O)(=O)c1ccc(-c2ccc(Cl)cc2)c(COc2ccc(-c3nc4cc(C(=O)O)ccc4n3C3CCCCC3)c(F)c2)c1 [Example 409, 2-{4-[2-(4-chlorophenyl)-5-(isopropylaminosulfonyl)benzyloxy]-2-fluorophenyl}-1-cyclohexylbenzimidazole-5-carboxylic acid hydrochloride]	20 nM
CN(C)C(=O)c1cccc(C(Oc2ccc(-c3nc4cc(C(=O)O)ccc4n3C3CCCCC3)c(F)c2)c2ccc(F)cc2)c1 (stereo not shown) [Example 442, 2-{4-[(3-dimethylcarbamoylphenyl)(4-fluorophenyl)methoxy]-2-fluorophenyl}-1-cyclohexylbenzimidazole-5-carboxylic acid hydrochloride]	24 nM
NC(=O)c1ccc(COc2ccc(-c3nc4cc(C(=O)O)ccc4n3C3CCCCC3)cc2)c(-c2ccc(Cl)cc2)c1 [Example 225, 2-{4-[4-carbamoyl-2-(4-chlorophenyl)benzyloxy]phenyl}-1-cyclohexylbenzimidazole-5-carboxylic acid]	14 nM
COc1cccc(Oc2ccc(-c3nc4cc(C(=O)O)ccc4n3C3CCCCC3)cc2)c1 [Example 109, 1-cyclohexyl-2-[4-(3-methoxyphenoxy)phenyl]benzimidazole-5-carboxylic acid]	110 nM
O=C(O)c1ccc2c(c1)nc(-c1ccc(OCc3ccc(F)cc3C(=O)c3cccc(F)c3)cc1F)n2C1CCCCC1 [Example 256, 1-cyclohexyl-2-{2-fluoro-4-[4-fluoro-2-(3-fluorobenzoyl)benzyloxy]phenyl}benzimidazole-5-carboxylic acid]	79 nM
O=C(O)c1ccc2c(c1)nc(-c1ccc(Oc3ccccc3OCc3ccccc3)cc1)n2C1CCCCC1 [Example 104, 2-[4-(2-benzyloxyphenoxy)phenyl]-1-cyclohexylbenzimidazole-5-carboxylic acid]	73 nM
O=C(O)c1ccc2c(c1)nc(-c1ccc(OCc3cc(Cl)ccc3-c3ccc(-c4nnn[nH]4)cc3)cc1)n2C1CCCCC1 [Example 369, 2-{4-[5-chloro-2-(4-tetrazol-5-ylphenyl)benzyloxy]phenyl}-1-cyclohexylbenzimidazole-5-carboxylic acid hydrochloride]	22 nM
O=C(O)c1ccc2c(c1)nc(-c1ccc(OCc3cc(C(=O)Nc4ccccc4)ccc3-c3ccc(Cl)cc3)cc1)n2C1CCCCC1 [Example 332, 2-{4-[2-(4-chlorophenyl)-5-(phenylcarbamoyl)benzyloxy]phenyl}-1-cyclohexylbenzimidazole-5-carboxylic acid hydrochloride]	23 nM
Cc1noc(-c2ccc(-c3ccc(Cl)cc3)c(COc3ccc(-c4nc5cc(C(=O)O)ccc5n4C4CCCCC4)cc3)c2)n1 [Example 349, 2-{4-[2-(4-chlorophenyl)-5-(3-methyl-1,2,4-oxadiazol-5-yl)benzyloxy]phenyl}-1-cyclohexylbenzimidazole-5-carboxylic acid hydrochloride]	21 nM
O=C(O)c1ccc2c(c1)nc(-c1ccc(OCCc3ccc4ccccc4c3)cc1)n2C1CCCCC1 [Example 85, 1-cyclohexyl-2-{4-[2-(2-naphthyl)ethoxy]phenyl}benzimidazole-5-carboxylic acid]	170 nM
O=C(O)c1ccc2c(c1)nc(-c1ccc(OCc3cc(Cl)ccc3-c3cc(Cl)cc(Cl)c3)cc1)n2C1CCCCC1 [Example 147, 2-{4-[3-chloro-6-(3,5-dichlorophenyl)benzyloxy]phenyl}-1-cyclohexylbenzimidazole-5-carboxylic acid]	310 nM
O=C(O)c1ccc2c(c1)nc(-c1ccc(OCc3cc(N4CCCS4(=O)=O)ccc3-c3ccc(Cl)cc3)cc1F)n2C1CCCCC1 [Example 446, 2-{4-[2-(4-chlorophenyl)-5-(1,1-dioxoisothiazolidin-2-yl)benzyloxy]-2-fluorophenyl}-1-cyclohexylbenzimidazole-5-carboxylic acid hydrochloride]	16 nM
Cc1cnc(-c2ccc(Br)c(COc3ccc(-c4nc5cc(C(=O)O)ccc5n4C4CCCCC4)cc3)c2)s1 [Example 364, 2-{4-[2-bromo-5-(5-methylthiazol-2-yl)benzyloxy]phenyl}-1-cyclohexylbenzimidazole-5-carboxylic acid hydrochloride]	120 nM
O=C(O)c1ccc2c(c1)nc(-c1ccc(OCc3cc(O)ccc3-c3ccc(Cl)cc3)cc1)n2C1CCCCC1 [Example 329, 2-{4-[2-(4-chlorophenyl)-5-hydroxybenzyloxy]phenyl}-1-cyclohexylbenzimidazole-5-carboxylic acid hydrochloride]	47 nM
